# According to ChEMBL document CHEMBL1772964, “Structural requirements of flavonoids for the adipogenesis of 3T3-L1 cells” (Bioorg Med Chem, 2011):
# Tests used:
# [1] = system: 3T3-L1; assay: Induction of adipogenesis in mouse 3T3L1 cells assessed as increase in triglyceride level at 10 uM on day 8 relative to control; assay type: functional
# [2] = system: 3T3-L1; assay: Induction of adipogenesis in mouse 3T3L1 cells assessed as increase in triglyceride level at 3 uM on day 8 relative to control; assay type: functional
# [3] = system: 3T3-L1; assay: Induction of adipogenesis in mouse 3T3L1 cells assessed as increase in triglyceride level at 30 uM on day 8 relative to control; assay type: functional
# [4] = system: 3T3-L1; assay: Induction of adipogenesis in mouse 3T3L1 cells assessed as increase in triglyceride level at 1 uM on day 8 relative to control; assay type: functional
# [5] = system: 3T3-L1; assay: Induction of adipogenesis in mouse 3T3L1 cells assessed as increase in triglyceride level at 0.3 uM on day 8 relative to control; assay type: functional
# [6] = system: 3T3-L1; assay: Cytotoxicity in mouse 3T3L1 cells assessed as reduction in triglyceride accumulation at 30 uM; assay type: cell-based; settings: 3t3-l1, 30 µM
# [7] = system: 3T3-L1; assay: Induction of adiponectin protein secretion in mouse 3T3L1 cells at 3 uM on day 8 by ELISA relative to control; assay type: functional
Structure (SMILES),Activity [1],Activity [2],Activity [3],Activity [4],Activity [5],Activity [6],Activity [7]
COc1cc(O)c2c(=O)c(OC)c(-c3ccccc3)oc2c1,14.2%,13.7%,17.7%,13.3%,–,–,–
O=c1cc(-c2ccc(O)c(O)c2)oc2ccccc12,9.8%,13.8%,-21%,5.9%,–,–,–
O=c1cc(-c2ccc(O)cc2)oc2cc(O)ccc12,-1.5%,-3.9%,-5.7%,-8.1%,–,–,–
O=c1cc(-c2ccc(O)c(O)c2)oc2cc(O)ccc12,14.8%,9%,-1.7%,4.5%,–,–,–
COc1ccc(-c2cc(=O)c3c(O)cc(OC)cc3o2)cc1,5.8%,12.2%,6.8%,19%,7.7%,–,–
COc1ccc2c(c1)OC(c1ccc(O)cc1)CC2=O (stereo not given),2.6%,2.2%,13.5%,-1.2%,–,–,–
COc1cc(OC)c2c(=O)c(OC)c(-c3ccccc3)oc2c1,13.2%,10.4%,6.6%,9%,–,–,–
"COc1ccc(-c2cc(=O)c3ccc(OC)cc3o2)cc1 [4,7-DIMETHOXYFLAVONE]",4.3%,3.4%,6.3%,1.2%,–,–,–
O=c1cc(-c2ccccc2)oc2cc(O)ccc12 [7-HYDROXYFLAVONE],17.1%,13.7%,5.3%,12.2%,–,–,–
Oc1cc(O)c2c(c1)O[C@H](c1ccc(O)c(O)c1)[C@H](O)C2 [(-)-EPICATECHIN],-7.2%,6.1%,-0.6%,3.7%,–,–,–
O=c1cc(-c2ccc(O)cc2)oc2cc(O)cc(O)c12 [APIGENIN],7%,4.9%,-7.7%,4.5%,–,–,–
O=c1c(O[C@@H]2O[C@H](CO)[C@@H](O)[C@H](O)[C@H]2O)c(-c2ccc(O)cc2)oc2cc(O)cc(O)c12 [ASTRAGALIN],8.8%,4.7%,10.2%,2.1%,–,–,–
COc1cc(O)c2c(=O)c(OC)c(-c3ccc(OC)c(O)c3)oc2c1 [AYANIN],18.5%,16.3%,0.4%,2.6%,–,–,–
O=c1cc(-c2ccccc2)oc2cc(O)c(O)c(O)c12 [BAICALEIN],-21.8%,-7.7%,-37.2%,-5.2%,–,Toxic,–
COc1ccc(-c2coc3cc(O)cc(O)c3c2=O)cc1 [BIOCHANIN],1.2%,6.1%,-16.5%,2.6%,–,–,–
O=C(/C=C/c1ccc(O)c(O)c1)c1ccc(O)cc1O [BUTEIN],-7.3%,17.5%,-80.8%,14.8%,–,Toxic,–
COc1cc(OC)c2c(=O)cc(-c3ccccc3)oc2c1 [CHRYSIN DIMETHYL ETHER],6.3%,3.4%,-88.1%,7.5%,–,Toxic,–
Oc1cc(O)c2c(c1)O[C@H](c1ccc(O)c(O)c1)[C@@H](O)C2 [CIANIDANOL],7.9%,6.4%,11.9%,-0.5%,–,–,–
O=c1c(-c2ccc(O)cc2)coc2cc(O)ccc12 [DAIDZEIN],8.5%,6.5%,13.4%,2%,–,–,–
Oc1cc(O)c2c(c1)O[C@H](c1cc(O)c(O)c(O)c1)[C@H](O)C2 [EPIGALLOCATECHIN],-10.2%,-3.8%,-19.5%,-9.5%,–,–,–
O=C1C[C@@H](c2ccc(O)c(O)c2)Oc2cc(O)cc(O)c21 [ERIODICTYOL],-10.3%,-5%,-10.3%,1.6%,–,–,–

Structure (SMILES),Activity [1],Activity [2],Activity [3],Activity [4],Activity [5],Activity [6],Activity [7]
O=c1c(O)c(-c2ccc(O)c(O)c2)oc2cc(O)ccc12 [FISETIN],-8.8%,-2.4%,-2.7%,4.1%,–,–,–
O=C1CC(c2ccccc2)Oc2ccccc21 (stereo not given) [FLAVANONE],2.5%,5.1%,1%,-1.9%,–,–,–
O=c1cc(-c2ccccc2)oc2ccccc12 [FLAVONE],-5.2%,-6.8%,-10.9%,-2.6%,–,–,–
O=c1c(O)c(-c2ccccc2)oc2ccccc12 [FLAVONOL],-17.6%,-10%,-31.6%,-12.6%,–,Toxic,–
O=c1c(-c2ccc(O)cc2)coc2cc(O)cc(O)c12 [GENISTEIN],-17.6%,-4.3%,-19.2%,-4.3%,–,–,–
O=c1c(O)c(-c2ccc(O)c(O)c2)oc2c(O)c(O)cc(O)c12 [GOSSYPETIN],-6.7%,-2.9%,-9.5%,17.5%,–,–,–
O=C(/C=C/c1ccc(O)cc1)c1ccc(O)cc1O [ISOLIQUIRITIGENIN],-0.7%,4%,-33.7%,2.7%,–,–,–
O=c1c(O[C@@H]2O[C@H](CO)[C@@H](O)[C@H](O)[C@H]2O)c(-c2ccc(O)c(O)c2)oc2cc(O)cc(O)c12 [ISOQUERCETIN],-0.2%,0.1%,-2.4%,-2.2%,–,–,–
O=c1cc(-c2ccc(O)c(O)c2)oc2cc(O)cc(O)c12 [LUTEOLIN],-14.2%,-6.4%,-41.3%,3.9%,–,Toxic,–
O=c1c(O)c(-c2cc(O)c(O)c(O)c2)oc2cc(O)cc(O)c12 [MYRICETIN],-0.7%,2.7%,5.6%,4.3%,–,–,–
COc1ccc(-c2cc(=O)c3c(OC)c(OC)c(OC)c(OC)c3o2)cc1OC [NOBILETIN],10.7%,12.6%,-6.7%,15.3%,14.1%,–,–
COc1cc(O)c2c(=O)c(O)c(-c3ccc(OC)c(O)c3)oc2c1 [OMBUINE],4.6%,5.9%,24.7%,-2.1%,–,–,–
O=c1c(O)c(-c2ccc(O)c(O)c2)oc2cc(O)cc(O)c12 [QUERCETIN],3%,5.8%,3.9%,7%,–,–,–
COc1cc(O)c2c(=O)c(OC)c(-c3ccc(OC)c(OC)c3)oc2c1 [RETUSIN],21%,11.2%,3.8%,3.8%,–,–,–
COc1cc(O)c2c(=O)c(O)c(-c3ccc(O)c(O)c3)oc2c1 [RHAMNETIN],2.4%,1.9%,-21.4%,19%,15.5%,–,–
COc1cc(O)c2c(=O)cc(-c3ccccc3)oc2c1 [TECHTOCHRYSIN],10.4%,10.7%,17.5%,7.4%,–,–,–
COc1cc(OC)c2c(=O)cc(-c3ccc(OC)c(OC)c3)oc2c1 [TETRAMETHYLLUTEOLIN],7.4%,3.1%,-15.3%,2.6%,–,–,–
COc1ccc(-c2cc(=O)c3c(OC)cc(OC)cc3o2)cc1 [TRIMETHYLAPIGENIN],-17.2%,14.1%,-83%,16.7%,5.6%,Toxic,–
Cc1c(C)c2c(c(C)c1O)CCC(C)(COc1ccc(CC3SC(=O)NC3=O)cc1)O2 (stereo not given) [TROGLITAZONE],28.1%,34.6%,–,35.8%,31.9%,–,166.4%
COc1c(O)cc(O)c2c(=O)cc(-c3ccccc3)oc12 [WOGONIN],19.2%,9.6%,16.6%,7.8%,–,–,–
